According to ChEMBL document CHEMBL1201862, “PubChem BioAssay data set” (2004):
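Test compounds were applied to cells in 96-well plates for 48 hours at 5 doses. Here, GI50 denotes the concentration required for 50% inhibition of growth.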 Activity calls are given as the source filed them. Cut-off read from the data, not from the text of the source: active = GI50 up to about 1.1 µM and inactive = higher.

Key:
Test in all cases: inhibition of tumour cell growth, NCI panel, 48 h
[1] = system: MDA-MB-435
[2] = system: A549
[3] = system: HCC 2998
[4] = system: OVCAR-4
[5] = system: HT-29
[6] = system: HL-60
[7] = system: HOP-62
[8] = system: KM12
[9] = system: COLO 205
[10] = system: NCI-H226
[11] = system: SR
[12] = system: SK-MEL-28
[13] = system: RXF 393
[14] = system: MDA-N
[15] = system: TK-10
[16] = system: U-251
[17] = system: HCT-15
[18] = system: LOX IMVI
[19] = system: NCI-H460
[20] = system: SF-539

Row | Compound | GI50 [1] | GI50 [2] | GI50 [3] | GI50 [4] | GI50 [5] | GI50 [6] | GI50 [7] | GI50 [8] | GI50 [9] | GI50 [10] | GI50 [11] | GI50 [12] | GI50 [13] | GI50 [14] | GI50 [15] | GI50 [16] | GI50 [17] | GI50 [18] | GI50 [19] | GI50 [20]
1 | O=C(Nc1ccccc1)N(CCCCN(Cc1ccccc1)C(=O)Nc1ccccc1)Cc1ccccc1 | > 100 µM (inactive) | 28.8 µM (inactive) | > 100 µM (inactive) | 75.5 µM (inactive) | 74.5 µM (inactive) | > 100 µM (inactive) | > 100 µM (inactive) | > 100 µM (inactive) | > 100 µM (inactive) | > 100 µM (inactive) | 44.3 µM (inactive) | > 100 µM (inactive) | 43.8 µM (inactive) | > 100 µM (inactive) | > 100 µM (inactive) | > 100 µM (inactive) | > 100 µM | > 100 µM (inactive) | > 100 µM (inactive) | –
2 | O=C1N[C@@H]2c3c(Br)sc(Br)c3C(=O)[C@@H]2O1 | 2.47 µM (inactive) | 16.4 µM (inactive) | 3.69 µM (inactive) | 1.79 µM (inactive) | 1.9 µM (inactive) | 0.743 µM (active) | 22 µM (inactive) | 10.7 µM (inactive) | 2.56 µM (inactive) | 9.66 µM (inactive) | 1.81 µM (inactive) | 2.62 µM (inactive) | 2.2 µM (inactive) | 2.44 µM (inactive) | 6 µM (inactive) | 2.39 µM (inactive) | 1.91 µM | 1.83 µM (inactive) | 8.67 µM (inactive) | 10.3 µM (inactive)
3 | O=C(Nc1ccn(C2CC(I)C(COC(c3ccccc3)(c3ccccc3)c3ccccc3)O2)c(=O)n1)c1ccccc1 (stereo not drawn) | 7.36 µM (inactive) | 7.83 µM (inactive) | 12.6 µM (inactive) | 3.75 µM (inactive) | 6.5 µM (inactive) | 5.83 µM (inactive) | 14 µM (inactive) | 7.46 µM (inactive) | 7.59 µM (inactive) | 8.55 µM (inactive) | 0.6 µM (active) | 11.4 µM (inactive) | 8.59 µM (inactive) | 7.91 µM (inactive) | 15.9 µM (inactive) | 10.1 µM (inactive) | 8.73 µM | 8.18 µM (inactive) | 7.11 µM (inactive) | 12.4 µM (inactive)
4 | Cc1cn(C2CC(N=[N+]=[N-])C(CO[Si](C)(C)C(C)(C)C)O2)c(=O)[nH]c1=O (stereo not drawn) | 18 µM (inactive) | 27.2 µM (inactive) | 12.6 µM (inactive) | 14.2 µM (inactive) | 16.8 µM (inactive) | 28.7 µM (inactive) | 16.4 µM (inactive) | 15.8 µM (inactive) | 17.5 µM (inactive) | 14.9 µM (inactive) | 23.3 µM (inactive) | – | 15.5 µM (inactive) | 17 µM (inactive) | 16.3 µM (inactive) | 18.1 µM (inactive) | 18.3 µM | 16.9 µM (inactive) | – | 18 µM (inactive)
5 | Cc1cc2ccccc2c[n+]1CC(=O)CC([O-])(C(F)(F)F)C(F)(F)F | > 100 µM (inactive) | > 100 µM (inactive) | > 100 µM (inactive) | > 100 µM (inactive) | 56.6 µM (inactive) | > 100 µM (inactive) | > 100 µM (inactive) | – | > 100 µM (inactive) | > 100 µM (inactive) | > 100 µM (inactive) | > 100 µM (inactive) | 37.3 µM (inactive) | > 100 µM (inactive) | – | > 100 µM (inactive) | > 100 µM | > 100 µM (inactive) | > 100 µM (inactive) | > 100 µM (inactive)
6 | C=CCOc1ccc(C2C(C(=O)OCC)C(=O)CC(C)(O)C2C(=O)OCC)cc1OC (stereo not drawn) | > 100 µM (inactive) | > 100 µM (inactive) | > 100 µM (inactive) | > 100 µM (inactive) | > 100 µM (inactive) | > 100 µM (inactive) | > 100 µM (inactive) | > 100 µM (inactive) | > 100 µM (inactive) | > 100 µM (inactive) | > 100 µM (inactive) | > 100 µM (inactive) | > 100 µM (inactive) | > 100 µM (inactive) | > 100 µM (inactive) | > 100 µM (inactive) | > 100 µM | > 100 µM (inactive) | > 100 µM (inactive) | > 100 µM (inactive)
7 | CCOC(=O)Oc1cc2c(c(OC)c1OC)-c1ccc(OC)c(=O)cc1C(NC(C)=O)CC2 (stereo not drawn) | < 0.01 µM (active) | 0.168 µM (active) | 0.0176 µM (active) | 11.2 µM (inactive) | 0.0187 µM (active) | < 0.0118 µM (active) | 0.0509 µM (active) | 0.0172 µM (active) | 0.0185 µM (active) | 0.183 µM (active) | < 0.01 µM (active) | < 0.215 µM (active) | < 0.0137 µM (active) | < 0.01 µM (active) | 3.78 µM (inactive) | 0.0212 µM (active) | 0.252 µM | 0.0153 µM (active) | 0.0468 µM (active) | 0.0138 µM (active)
8 | Cc1ccc(S(N)(=O)=O)cc1 [P-TOLUENESULFONAMIDE] | > 1000 µM (inactive) | > 1000 µM (inactive) | > 1000 µM (inactive) | – | > 1000 µM (inactive) | > 1000 µM (inactive) | > 1000 µM (inactive) | > 1000 µM (inactive) | > 1000 µM (inactive) | > 1000 µM (inactive) | > 1000 µM (inactive) | – | 502 µM (inactive) | > 1000 µM (inactive) | > 1000 µM (inactive) | > 1000 µM (inactive) | > 1000 µM | > 1000 µM (inactive) | > 1000 µM (inactive) | > 1000 µM (inactive)
